In the NIST ThermoML archive (doi:10.1016/j.jct.2013.12.012):
Several values for one entry are separate records, joined by “and”; a condition that tells them apart may be missing. Equal values may be shown once.

Experiments:
[1] = Molar enthalpy of transition or fusion; conditions: DSC
[2] = molar heat capacity at constant pressure
[3] = for vapor or sublimation pressure: Closed cell (Static) method; for Normal melting temperature / Triple point temperature: DTA

CC1(C)C(=O)[C@@]2(C)CC[C@@H]1C2 [(+)-fenchone]
Conditions	Molar enthalpy of transition or fusion, [1] [kcal/mol]	Normal melting temperature, [3] [°C]	Triple point temperature, [3] [K]
Crystal 1	–	5.5	–
Crystal 2	4.16	–	278

[2], 101.33 kPa
Conditions	molar heat capacity at constant pressure [J/K/mol]
273.4 K, Metastable liquid, Large sample (1 g) DSC	259.6
278.5 K, Metastable liquid, Large sample (1 g) DSC	260.7
283.6 K, Large sample (1 g) DSC, Liquid	263.6
288.7 K, Large sample (1 g) DSC, Liquid	264.6
293.8 K, Large sample (1 g) DSC, Liquid	266.6
298.9 K, Large sample (1 g) DSC, Liquid	269.8
304 K, Large sample (1 g) DSC, Liquid	271.8
309.1 K, Large sample (1 g) DSC, Liquid	274.4
314.2 K, Large sample (1 g) DSC, Liquid	277
319.4 K, Large sample (1 g) DSC, Liquid	278.9
324.5 K, Large sample (1 g) DSC, Liquid	281.7
329.6 K, Large sample (1 g) DSC, Liquid	284.7
334.7 K, Large sample (1 g) DSC, Liquid	287.3
339.8 K, Large sample (1 g) DSC, Liquid	289.9
344.9 K, Large sample (1 g) DSC, Liquid	292.7
350 K, Large sample (1 g) DSC, Liquid	295.6
355.1 K, Large sample (1 g) DSC, Liquid	298.8

[3]
Conditions	vapor or sublimation pressure
238.15 K, Crystal 2	0.00014 kPa and 0.000141 kPa and 0.000142 kPa
243.15 K, Crystal 2	0.000277 kPa and 0.000278 kPa
243.15 K, Metastable liquid	0.000763 kPa and 0.000764 kPa
248.15 K, Crystal 2	0.000547 kPa and 0.000548 kPa
248.15 K, Metastable liquid	0.001307 kPa and 0.001308 kPa
253.15 K, Crystal 2	0.001053 kPa and 0.001054 kPa
253.15 K, Metastable liquid	0.002188 kPa and 0.002189 kPa
258.15 K, Crystal 2	0.001988 kPa and 0.001991 kPa and 0.001993 kPa
258.15 K, Metastable liquid	0.003604 kPa and 0.003605 kPa
263.15 K, Crystal 2	0.0037 kPa and 0.003705 kPa
263.15 K, Metastable liquid	0.005827 kPa and 0.005828 kPa and 0.005829 kPa
268.15 K, Crystal 2	0.006751 kPa and 0.006753 kPa
268.15 K, Metastable liquid	0.009242 kPa and 0.009244 kPa and 0.009246 kPa
273.15 K, Crystal 2	0.01206 kPa
273.15 K, Metastable liquid	0.01436 kPa
278.15 K, Crystal 1	0.02111 kPa and 0.02112 kPa
278.15 K, Metastable liquid	0.02193 kPa and 0.02194 kPa
283.15 K, Liquid	0.03289 kPa and 0.0329 kPa and 0.03291 kPa
288.15 K, Liquid	0.04842 kPa and 0.04845 kPa
293.15 K, Liquid	0.07036 kPa and 0.07037 kPa
298.15 K, Liquid	0.1007 kPa and 0.1008 kPa
303.15 K, Liquid	0.1421 kPa
308.15 K, Liquid	0.1977 kPa and 0.1978 kPa

CC1(C)[C@H]2CC[C@]1(C)[C@H](O)C2 [(1S-endo)-1,7,7-trimethylbicyclo[2.2.1]heptan-2-ol]
Conditions	Molar enthalpy of transition or fusion, [1] [kcal/mol]	Normal melting temperature, [3] [°C]	Triple point temperature, [3] [K]
Crystal 1	1.74	207.2	–
Crystal 2	0.765	–	347.9

[2], 101.33 kPa, Crystal 2, Large sample (1 g) DSC
Conditions	molar heat capacity at constant pressure [J/K/mol]
273.4 K	237.9
278.5 K	241.9
283.6 K	246.4
288.7 K	250.5
293.8 K	255.4
298.9 K	261.2
304 K	266.7
309.1 K	272.5
314.2 K	279
319.4 K	286.1
324.5 K	293.6
329.6 K	302
334.7 K	311

[3], Crystal 2
Conditions	vapor or sublimation pressure
273.65 K	0.000211 kPa and 0.000212 kPa
278.15 K	0.00036 kPa and 0.000361 kPa
283.15 K	0.000638 kPa and 0.000639 kPa
288.15 K	0.001105 kPa and 0.001106 kPa and 0.001104 kPa
293.15 K	0.001882 kPa and 0.001883 kPa
298.15 K	0.003159 kPa and 0.003161 kPa and 0.003162 kPa
303.15 K	0.005213 kPa and 0.005214 kPa and 0.005215 kPa
308.15 K	0.008461 kPa and 0.008464 kPa and 0.008465 kPa

CC1(C)[C@H]2CC[C@]1(C)C(=O)C2 [(1S)-1,7,7-trimethylbicyclo[2.2.1]heptan-2-one]
Conditions	Molar enthalpy of transition or fusion, Crystal 1 [kcal/mol]	Molar enthalpy of transition or fusion, Crystal 2 [kcal/mol]	Molar enthalpy of transition or fusion, Crystal 3 [kcal/mol]	Normal melting temperature, Crystal 1 [°C]	Triple point temperature, Crystal 2 [K]	Triple point temperature, Crystal 3 [K]
[1]	1.17	0.0478	2.63	–	–	–
[3]	–	–	–	175.4	373.4	243.9

[2], 101.33 kPa, Crystal 2, Large sample (1 g) DSC
Conditions	molar heat capacity at constant pressure [J/K/mol]
273.4 K	241
278.5 K	242
283.6 K	243
288.7 K	244.9
293.8 K	246.6
298.9 K	248.9
304 K	251
309.1 K	253.2
314.2 K	255.5
319.4 K	256.9
324.5 K	259.7
329.6 K	262.5
334.7 K	264.8
339.8 K	267.2
344.9 K	270.5
350 K	273.6
355.1 K	276.7

[3], Crystal 2
Conditions	vapor or sublimation pressure
273.65 K	0.00359 kPa and 0.003604 kPa and 0.003606 kPa
278.15 K	0.005406 kPa and 0.005414 kPa and 0.00542 kPa
283.15 K	0.008302 kPa and 0.008322 kPa and 0.008324 kPa
288.15 K	0.01261 kPa and 0.01262 kPa and 0.0126 kPa
293.15 K	0.01883 kPa and 0.01885 kPa and 0.01888 kPa
298.15 K	0.02802 kPa and 0.02806 kPa and 0.02812 kPa
303.15 K	0.04122 kPa and 0.04127 kPa
308.15 K	0.05983 kPa and 0.05985 kPa and 0.05989 kPa

C=C1C2CCC(C2)C1(C)C (stereo not drawn) [2,2-dimethyl-3-methylenebicyclo[2.2.1]heptane]
Crystal
Conditions	Molar enthalpy of transition or fusion [kcal/mol]	Normal melting temperature [°C]
[1]	0.645	–
[3]	–	44.5

[2], 101.33 kPa, Large sample (1 g) DSC
Conditions	molar heat capacity at constant pressure [J/K/mol]
258.1 K, Crystal	211.1
263.2 K, Crystal	213.9
268.3 K, Crystal	216.8
273.4 K, Crystal	219.8
278.5 K, Crystal	222.7
283.6 K, Crystal	225.7
288.7 K, Crystal	228.8
293.8 K, Crystal	231.9
298.9 K, Crystal	235.1
324.5 K, Liquid	251.5
329.6 K, Liquid	254.5
334.7 K, Liquid	257.4
339.8 K, Liquid	259.8
344.9 K, Liquid	262.3
350 K, Liquid	265.6
355.1 K, Liquid	269.3

[3], Crystal
Conditions	vapor or sublimation pressure
238.15 K	0.003435 kPa and 0.003436 kPa
243.15 K	0.005761 kPa and 0.005765 kPa and 0.005768 kPa
248.15 K	0.00946 kPa and 0.009464 kPa and 0.009473 kPa
253.15 K	0.01527 kPa
258.15 K	0.0241 kPa and 0.02413 kPa
263.15 K	0.03746 kPa and 0.03747 kPa
268.15 K	0.05698 kPa and 0.05699 kPa
273.15 K	0.08514 kPa and 0.08515 kPa and 0.08516 kPa
273.65 K	0.0885 kPa and 0.08853 kPa and 0.08854 kPa
278.15 K	0.1252 kPa
283.15 K	0.1811 kPa
288.15 K	0.2585 kPa and 0.2586 kPa and 0.2587 kPa
293.15 K	0.3628 kPa and 0.363 kPa and 0.3631 kPa
298.15 K	0.5037 kPa and 0.5038 kPa and 0.5039 kPa
303.15 K	0.6891 kPa and 0.6896 kPa and 0.69 kPa
308.15 K	0.934 kPa and 0.9343 kPa and 0.9345 kPa
